# Results reported in US20210283211A1, “COMPOSITIONS AND METHODS OF ALLEVIATING RESISTANCE TO CHEMOTHERAPY” (CITY OF HOPE, priority 2019, published 2021).
# Tested on: patient-derived organoids (lung cancer)
# Experiment: Patient tumor tissue-derived organoid assay (area, caspase activity)
# Type: cell-based, human
# Experimental: Next, drug efficacy in patient tumor tissue-derived organoids was determined. Approximately 5000 cells/sample from 2 surgical samples were seeded in an ultra-low attachment plate and incubated at 37° C. […] In one of the patient-derived organoids, cisplatin treatment alone decreased spheroid area and increased apoptosis as measured by green intensity (FIG. 11D). […] Indeed, by 72 hours carfilzomib at a concentration of 2.5 μM induced 5-fold increase in caspase activity compared to cisplatin alone but there was not much change in the spheroid area (FIGS. 11E-11F). Thus, no additive effect was apparent in this patient sample. […] The efficacy of ITGB4 antibody in disrupting organoid growth and inducing apoptosis was also tested.
smiles,measurement,setting,value
CC(C)C[C@H](NC(=O)[C@H](CCc1ccccc1)NC(=O)CN1CCOCC1)C(=O)N[C@@H](Cc1ccccc1)C(=O)N[C@@H](CC(C)C)C(=O)[C@@]1(C)CO1 [Carfilzomib],spheroid area,patient LCSC2,decreased the spheroid area
same,"caspase activity, combination with cisplatin","patient LCSC2, both drugs combined",enhanced
same,"apoptosis, combination with cisplatin","patient LCSC4, carfilzomib and cisplatin combined",did not have an additive effect
same,organoid size,"patient LCSC4, cisplatin 5 μM alone, carfilzomib 2.5 μM alone",decreased the size of the organoid
same,induction of apoptosis (caspase activity) compared to cisplatin alone,"patient LCSC4 organoids, 2.5 μM, by 72 hours",5 fold
same,increase in apoptosis (caspase activity),second patient (LCSC2) organoids,~50 fold
